According to PubChem BioAssay AID1963826 (Molecular Pharmacology Branch, DTP, NCI, 2024):

Tested on: 926638-142-R-J1-PDC complex spheroid viability
Test: Anticancer human tumor 926638-142-R-J1-PDC patient-derived endometrial carcinoma cell line growth inhibition [POLQ]
Conditions: for IC50: curve of first compound; for viability, T/C: stronger effect = lower value
Summary of the method: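 Complex spheroid viability model combining PDC tumour cells with endothelial (HUVEC) and MSC stromal cells. Novobiocin, ART-558 or RP6685 were tested singly and in combination with standard and investigational anticancer drugs. Each was titrated in half-log steps from near clinical Cmax, or from 10 microM where Cmax was unknown.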

[1] = second compound 0.0316 µM, first compound 0.0316 µM
[2] = second compound 0.0316 µM, first compound 0.1 µM
[3] = second compound 0.0316 µM, first compound 0.316 µM
[4] = second compound 0.0316 µM, first compound 1 µM
[5] = second compound 0.1 µM, first compound 0.0316 µM
[6] = second compound 0.1 µM, first compound 0.1 µM
[7] = second compound 0.1 µM, first compound 0.316 µM
[8] = second compound 0.1 µM, first compound 1 µM
[9] = second compound 0.316 µM, first compound 0.0316 µM
[10] = second compound 0.316 µM, first compound 0.1 µM
[11] = second compound 0.316 µM, first compound 0.316 µM
[12] = second compound 0.316 µM, first compound 1 µM
[13] = second compound 1 µM, first compound 0.0316 µM
[14] = second compound 1 µM, first compound 0.1 µM
[15] = second compound 1 µM, first compound 0.316 µM
[16] = second compound 1 µM, first compound 1 µM
[17] = second compound 3.16 µM, first compound 0.0316 µM
[18] = second compound 3.16 µM, first compound 0.1 µM
[19] = second compound 3.16 µM, first compound 0.316 µM
[20] = second compound 3.16 µM, first compound 1 µM
[21] = second compound 10 µM, first compound 0.0316 µM
[22] = second compound 10 µM, first compound 0.1 µM
[23] = second compound 10 µM, first compound 0.316 µM
[24] = second compound 10 µM, first compound 1 µM
[25] = second compound 0.0316 µM, first compound 3.16 µM
[26] = second compound 0.0316 µM, first compound 10 µM
[27] = second compound 0.1 µM, first compound 3.16 µM
[28] = second compound 0.1 µM, first compound 10 µM
[29] = second compound 0.316 µM, first compound 3.16 µM
[30] = second compound 0.316 µM, first compound 10 µM
[31] = second compound 1 µM, first compound 3.16 µM
[32] = second compound 1 µM, first compound 10 µM
[33] = second compound 3.16 µM, first compound 3.16 µM
[34] = second compound 3.16 µM, first compound 10 µM
[35] = second compound 10 µM, first compound 3.16 µM
[36] = second compound 10 µM, first compound 10 µM
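Also: spheroids exposed to drugs for one week before readout.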
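For viability, T/C in this document: percent viability relative to DMSO vehicle control wells set as 100%.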

Compound: C=CCn1c(=O)c2cnc(Nc3ccc(N4CCN(C)CC4)cc3)nc2n1-c1cccc(C(C)(C)O)n1 + Nc1ccc(C#CCN(C(=O)Cc2ncc(C(F)(F)F)cc2C(F)(F)F)c2ccc(F)cc2)nn1
- IC50 (second compound 0.0316 µM): 584 nM
- IC50 (second compound 0.1 µM): 626 nM
- IC50 (second compound 0.316 µM): 670 nM
- IC50 (second compound 1 µM): 457 nM
- IC50 (second compound 3.16 µM): 618 nM
- IC50 (second compound 10 µM): 263 nM
- viability, T/C (second compound 0.0316 µM, first compound 0.00316 µM): 100%
- viability, T/C (second compound 0.0316 µM, first compound 0.01 µM): 97.9%
- viability, T/C [1]: 80.7%
- viability, T/C [2]: 63%
- viability, T/C [3]: 57.5%
- viability, T/C [4]: 44.9%
- viability, T/C (second compound 0.1 µM, first compound 0.00316 µM): 122%
- viability, T/C (second compound 0.1 µM, first compound 0.01 µM): 90.6%
- viability, T/C [5]: 92.3%
- viability, T/C [6]: 81.3%
- viability, T/C [7]: 56.1%
- viability, T/C [8]: 43.3%
- viability, T/C (second compound 0.316 µM, first compound 0.00316 µM): 109%
- viability, T/C (second compound 0.316 µM, first compound 0.01 µM): 95.7%
- viability, T/C [9]: 95%
- viability, T/C [10]: 80.5%
- viability, T/C [11]: 64.6%
- viability, T/C [12]: 42%
- viability, T/C (second compound 1 µM, first compound 0.00316 µM): 116%
- viability, T/C (second compound 1 µM, first compound 0.01 µM): 94.4%
- viability, T/C [13]: 80.5%
- viability, T/C [14]: 72.7%
- viability, T/C [15]: 57.1%
- viability, T/C [16]: 37.6%
- viability, T/C (second compound 3.16 µM, first compound 0.00316 µM): 103%
- viability, T/C (second compound 3.16 µM, first compound 0.01 µM): 88.9%
- viability, T/C [17]: 80%
- viability, T/C [18]: 84.4%
- viability, T/C [19]: 60.2%
- viability, T/C [20]: 40.6%
- viability, T/C (second compound 10 µM, first compound 0.00316 µM): 76.5%
- viability, T/C (second compound 10 µM, first compound 0.01 µM): 95.2%
- viability, T/C [21]: 88.9%
- viability, T/C [22]: 67.3%
- viability, T/C [23]: 49.1%
- viability, T/C [24]: 42.6%

Compound: CC1COCCN1c1cc(-c2ccnn2C)c2ccnc(-c3ccn[nH]3)c2n1 (stereo unspecified) + Nc1ccc(C#CCN(C(=O)Cc2ncc(C(F)(F)F)cc2C(F)(F)F)c2ccc(F)cc2)nn1
- IC50 (second compound 0.0316 µM): 503 nM
- IC50 (second compound 0.1 µM): 386 nM
- IC50 (second compound 0.316 µM): 377 nM
- IC50 (second compound 1 µM): 285 nM
- IC50 (second compound 3.16 µM): 357 nM
- IC50 (second compound 10 µM): 369 nM
- viability, T/C [1]: 101%
- viability, T/C [2]: 83.7%
- viability, T/C [3]: 60.3%
- viability, T/C [4]: 36.7%
- viability, T/C [25]: 14%
- viability, T/C [26]: 9.34%
- viability, T/C [5]: 108%
- viability, T/C [6]: 85.9%
- viability, T/C [7]: 50.5%
- viability, T/C [8]: 33.7%
- viability, T/C [27]: 14.1%
- viability, T/C [28]: 9.21%
- viability, T/C [9]: 104%
- viability, T/C [10]: 84.7%
- viability, T/C [11]: 54.5%
- viability, T/C [12]: 26.7%
- viability, T/C [29]: 16.8%
- viability, T/C [30]: 10.1%
- viability, T/C [13]: 99.7%
- viability, T/C [14]: 69.6%
- viability, T/C [15]: 51.7%
- viability, T/C [16]: 27.5%
- viability, T/C [31]: 14.3%
- viability, T/C [32]: 9.7%
- viability, T/C [17]: 89.8%
- viability, T/C [18]: 73.6%
- viability, T/C [19]: 53.9%
- viability, T/C [20]: 28.6%
- viability, T/C [33]: 16.7%
- viability, T/C [34]: 8.56%
- viability, T/C [21]: 73.3%
- viability, T/C [22]: 74.5%
- viability, T/C [23]: 52.5%
- viability, T/C [24]: 25.7%
- viability, T/C [35]: 15.1%
- viability, T/C [36]: 9.63%

Compound: CCCS(=O)(=O)Nc1ccc(F)c(C(=O)c2c[nH]c3ncc(-c4ccc(Cl)cc4)cc23)c1F + Nc1ccc(C#CCN(C(=O)Cc2ncc(C(F)(F)F)cc2C(F)(F)F)c2ccc(F)cc2)nn1
- IC50 (second compound 0.0316 µM): 7880 nM
- IC50 (second compound 0.1 µM): > 10000 nM
- IC50 (second compound 0.316 µM): 8900 nM
- IC50 (second compound 1 µM): 8580 nM
- IC50 (second compound 3.16 µM): 8430 nM
- IC50 (second compound 10 µM): 6870 nM
- viability, T/C [1]: 99.5%
- viability, T/C [2]: 90.5%
- viability, T/C [3]: 103%
- viability, T/C [4]: 85.7%
- viability, T/C [25]: 80%
- viability, T/C [26]: 42.2%
- viability, T/C [5]: 111%
- viability, T/C [6]: 85.7%
- viability, T/C [7]: 103%
- viability, T/C [8]: 81.8%
- viability, T/C [27]: 94.5%
- viability, T/C [28]: 50.9%
- viability, T/C [9]: 90.4%
- viability, T/C [10]: 97.9%
- viability, T/C [11]: 100%
- viability, T/C [12]: 99.9%
- viability, T/C [29]: 87.1%
- viability, T/C [30]: 45.3%
- viability, T/C [13]: 105%
- viability, T/C [14]: 92.1%
- viability, T/C [15]: 93.3%
- viability, T/C [16]: 92.8%
- viability, T/C [31]: 80.4%
- viability, T/C [32]: 44.8%
- viability, T/C [17]: 89.8%
- viability, T/C [18]: 83.6%
- viability, T/C [19]: 90.5%
- viability, T/C [20]: 87.8%
- viability, T/C [33]: 88.6%
- viability, T/C [34]: 43.4%
- viability, T/C [21]: 87.9%
- viability, T/C [22]: 93.5%
- viability, T/C [23]: 91.3%
- viability, T/C [24]: 82.6%
- viability, T/C [35]: 71.2%
- viability, T/C [36]: 40.1%
